This test has as its target T1, Full-length, GST-tagged, human CaMKIIδ (Homo sapiens, UniProt Q13557).
T1 construct: Full-Length, Glutathione-S-Transferase(GST)-Tagged, Human CaMKIIδ was purchased from Carna Biosciences; purchased Carna Biosciences 02-111
As to the kind of experiment: CaMKIIδ binding assay (TR-FRET with BODIPY-labeled probe ligand). Conditions: Table 2; CaMKIIδ binding assay, activity given as class A/B/C. In a few lines: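 TR-FRET probe-displacement binding: 0.5 nM GST-CaMKIIδ with 10 μg/mL calmodulin, 1 mM CaCl2, 0.21 nM Tb-anti-GST Ab and 300 nM BODIPY probe in HEPES pH 7.6 buffer. Eight-point 4-fold dilutions, 1 hr at room temperature. IC50 from logistic fit; 100% inhibition defined by 3 μM parent compound.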
On the technique in general: In TR-FRET formats the signal depends on donor and acceptor labels being close together.
T1 sequence (Q13557 1-478 isoform Q13557-12): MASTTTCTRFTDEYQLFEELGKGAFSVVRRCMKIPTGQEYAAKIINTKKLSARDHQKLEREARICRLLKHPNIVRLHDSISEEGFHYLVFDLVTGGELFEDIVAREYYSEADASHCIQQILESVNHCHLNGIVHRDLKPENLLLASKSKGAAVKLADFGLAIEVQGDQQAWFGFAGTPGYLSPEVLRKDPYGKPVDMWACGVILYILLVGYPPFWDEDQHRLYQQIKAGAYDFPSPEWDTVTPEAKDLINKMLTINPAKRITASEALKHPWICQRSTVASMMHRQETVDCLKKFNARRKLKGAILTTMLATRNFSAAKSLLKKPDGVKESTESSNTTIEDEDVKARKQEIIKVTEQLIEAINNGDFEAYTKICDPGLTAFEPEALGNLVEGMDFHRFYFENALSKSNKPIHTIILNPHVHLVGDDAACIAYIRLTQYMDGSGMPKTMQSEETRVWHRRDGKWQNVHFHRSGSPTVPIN
The IC50 is the point on the concentration scale where inhibition reaches its midpoint. Read a low IC50 as inhibition by little substance. `C[C@@H](CO)Cn1cc(Nc2ncc(-c3ccc(Cl)c(O[C@@H](C)Cn4cnnn4)c3)cn2)c(OCC(F)(F)F)n1` [Example 784, (R)-3-(4-((5-(3-(((S)-1-(1H-tetrazol-1-yl)propan-2-yl)oxy)-4-chlorophenyl)pyrimidin-2-yl)amino)-3-(2,2,2-trifluoroethoxy)-1H-pyrazol-1-yl)-2-methylpropan-1-ol]: the half-maximal inhibitory concentration (IC50) was < 10 nM.

`C[C@@H](Cn1cccn1)Oc1cc(-c2cnc(Nc3cn([C@H]4CC[C@@H](N5CCOCC5)CC4)nc3C(F)(F)F)nc2)ccc1C#N` [Example 785, 2-(((S)-1-(1H-pyrazol-1-yl)propan-2-yl)oxy)-4-(2-((1-(cis-4-morpholinocyclohexyl)-3-(trifluoromethyl)-1H-pyrazol-4-yl)amino)pyrimidin-5-yl)benzonitrile] yielded an IC50 of 10 to 100 nM.

The compound `C[C@@H](Cn1cccn1)Oc1cc(-c2cnc(Nc3cn([C@H]4CC[C@H](N5CCOCC5)CC4)nc3C(F)(F)F)nc2)ccc1C#N` [Example 786, 2-(((S)-1-(1H-pyrazol-1-yl)propan-2-yl)oxy)-4-(2-((1-(trans-4-morpholinocyclohexyl)-3-(trifluoromethyl)-1H-pyrazol-4-yl)amino)pyrimidin-5-yl)benzonitrile] gave an IC50 of 10 to 100 nM.

Consider `C[C@H](CO)n1cc(Nc2ncc(-c3ccc(Cl)c(O[C@@H](C)Cn4cnnn4)c3)cn2)c(OCC(F)(F)F)n1` [Example 787, (R)-2-(4-((5-(3-(((S)-1-(1H-tetrazol-1-yl)propan-2-yl)oxy)-4-chlorophenyl)pyrimidin-2-yl)amino)-3-(2,2,2-trifluoroethoxy)-1H-pyrazol-1-yl)propan-1-ol], for which the IC50 is < 10 nM.

For `Cc1ccc(-c2cnc(Nc3cn(C4CCN(C5CCOCC5)CC4)nc3OCC(F)(F)F)nc2)cc1O[C@@H](C)Cn1cnnn1` [Example 788, (S)-5-(3-((1-(1H-tetrazol-1-yl)propan-2-yl)oxy)-4-methylphenyl)-N-(1-(1-(tetrahydro-2H-pyran-4-yl)piperidin-4-yl)-3-(2,2,2-trifluoroethoxy)-1H-pyrazol-4-yl)pyrimidin-2-amine], the IC50 is < 10 nM.

Take `C[C@@H](Cn1cnnn1)Oc1cc(-c2cnc(Nc3cn(C4CCN(C5CCOCC5)CC4)nc3OCC(F)(F)F)nc2)ccc1F` [Example 789, (S)-5-(3-((1-(1H-tetrazol-1-yl)propan-2-yl)oxy)-4-fluorophenyl)-N-(1-(1-(tetrahydro-2H-pyran-4-yl)piperidin-4-yl)-3-(2,2,2-trifluoroethoxy)-1H-pyrazol-4-yl)pyrimidin-2-amine]: the IC50 is < 10 nM.

In the case of `C[C@@H](Cn1cnnn1)Oc1cc(-c2cnc(Nc3cn(C4CCN(C5CCOCC5)CC4)nc3OCC(F)(F)F)nc2)ccc1C#N` [Example 790, (S)-2-((1-(1H-tetrazol-1-yl)propan-2-yl)oxy)-4-(2-((1-(1-(tetrahydro-2H-pyran-4-yl)piperidin-4-yl)-3-(2,2,2-trifluoroethoxy)-1H-pyrazol-4-yl)amino)pyrimidin-5-yl)benzonitrile], the IC50 is < 10 nM.

As to `C[C@@H](Cn1cnnn1)Oc1cc(-c2cnc(Nc3cn(C4CCNCC4)nc3OCC(F)F)nc2)ccc1Cl` [Example 791, (S)-5-(3-((1-(1H-tetrazol-1-yl)propan-2-yl)oxy)-4-chlorophenyl)-N-(3-(2,2-difluoroethoxy)-1-(piperidin-4-yl)-1H-pyrazol-4-yl)pyrimidin-2-amine], the IC50 is < 10 nM.

Consider `C[C@@H](Cn1cnnn1)Oc1cc(-c2cnc(Nc3cn(C4CCN(C5CCOCC5)CC4)nc3OCC(F)F)nc2)ccc1Cl` [Example 792, (S)-5-(3-((1-(1H-tetrazol-1-yl)propan-2-yl)oxy)-4-chlorophenyl)-N-(3-(2,2-difluoroethoxy)-1-(1-(tetrahydro-2H-pyran-4-yl)piperidin-4-yl)-1H-pyrazol-4-yl)pyrimidin-2-amine], for which the IC50 is < 10 nM.

Turning to `C[C@@H](Cn1cnnn1)Oc1cc(-c2cnc(Nc3cn(C4CCN(C)CC4)nc3OCC(F)F)nc2)ccc1Cl` [Example 793, (S)-5-(3-((1-(1H-tetrazol-1-yl)propan-2-yl)oxy)-4-chlorophenyl)-N-(3-(2,2-difluoroethoxy)-1-(1-methylpiperidin-4-yl)-1H-pyrazol-4-yl)pyrimidin-2-amine], the IC50 is < 10 nM.

Consider `C[C@@H](Cn1cnnn1)Oc1cc(-c2cnc(Nc3cn(C4CCN(C5CC5)CC4)nc3OCC(F)(F)F)nc2)ccc1Cl` [Example 794, (S)-5-(3-((1-(1H-tetrazol-1-yl)propan-2-yl)oxy)-4-chlorophenyl)-N-(1-(1-cyclopropylpiperidin-4-yl)-3-(2,2,2-trifluoroethoxy)-1H-pyrazol-4-yl)pyrimidin-2-amine], for which the IC50 is < 10 nM.

On to `COC[C@@H](C)n1cc(Nc2ncc(-c3ccc(Cl)c(O[C@@H](C)Cn4cnnn4)c3)cn2)c(OCC(F)(F)F)n1` [Example 796, 5-(3-(((S)-1-(1H-tetrazol-1-yl)propan-2-yl)oxy)-4-chlorophenyl)-N-(1-((R)-1-methoxypropan-2-yl)-3-(2,2,2-trifluoroethoxy)-1H-pyrazol-4-yl)pyrimidin-2-amine], for which the 50% inhibitory concentration (IC50) is < 10 nM.

For `C[C@@H](Cn1cccn1)Oc1cc(-c2cnc(Nc3cn([C@H]4CC[C@@H](N5CCOCC5)CC4)nc3OCC(F)(F)F)nc2)ccc1C#N` [Example 797, 2-(((S)-1-(1H-pyrazol-1-yl)propan-2-yl)oxy)-4-(2-((1-(cis-4-morpholinocyclohexyl)-3-(2,2,2-trifluoroethoxy)-1H-pyrazol-4-yl)amino)pyrimidin-5-yl)benzonitrile], the IC50 is 10 to 100 nM.

`C[C@@H](Cn1cccn1)Oc1cc(-c2cnc(Nc3cn([C@H]4CC[C@H](N5CCOCC5)CC4)nc3OCC(F)(F)F)nc2)ccc1C#N` [Example 798, 2-(((S)-1-(1H-pyrazol-1-yl)propan-2-yl)oxy)-4-(2-((1-(trans-4-morpholinocyclohexyl)-3-(2,2,2-trifluoroethoxy)-1H-pyrazol-4-yl)amino)pyrimidin-5-yl)benzonitrile]: the 50% inhibitory concentration (IC50) was < 10 nM.

Take `CC(O)Cn1cc(Nc2ncc(-c3ccc(Cl)c(O[C@@H](C)Cn4cnnn4)c3)cn2)c(OCC(F)(F)F)n1` (stereo partly drawn) [Example 799, 1-(4-((5-(3-(((S)-1-(1H-tetrazol-1-yl)propan-2-yl)oxy)-4-chlorophenyl)pyrimidin-2-yl)amino)-3-(2,2,2-trifluoroethoxy)-1H-pyrazol-1-yl)propan-2-ol]: the IC50 is < 10 nM.

Turning to `C[C@@H](Cn1cnnn1)Oc1cc(-c2cnc(Nc3cn(C4CCC(=O)CC4)nc3OCC(F)F)nc2)ccc1Cl` [Example 800, (S)-4-(4-((5-(3-((1-(1H-tetrazol-1-yl)propan-2-yl)oxy)-4-chlorophenyl)pyrimidin-2-yl)amino)-3-(2,2-difluoroethoxy)-1H-pyrazol-1-yl)cyclohexan-1-one], the IC50 was < 10 nM.

On to `C[C@@H](Cn1cnnn1)Oc1cc(-c2cnc(Nc3cn([C@H]4CC[C@@H](N5CC(C)(O)C5)CC4)nc3OCC(F)(F)F)nc2)ccc1Cl` [Example 801, 1-(cis-4-(4-((5-(3-(((S)-1-(1H-tetrazol-1-yl)propan-2-yl)oxy)-4-chlorophenyl)pyrimidin-2-yl)amino)-3-(2,2,2-trifluoroethoxy)-1H-pyrazol-1-yl)cyclohexyl)-3-methylazetidin-3-ol], for which the IC50 is < 10 nM.

For `C[C@@H](Cn1cnnn1)Oc1cc(-c2cnc(Nc3cn([C@H]4CC[C@H](N5CC(C)(O)C5)CC4)nc3OCC(F)(F)F)nc2)ccc1Cl` [Example 802, 1-(trans-4-(4-((5-(3-(((S)-1-(1H-tetrazol-1-yl)propan-2-yl)oxy)-4-chlorophenyl)pyrimidin-2-yl)amino)-3-(2,2,2-trifluoroethoxy)-1H-pyrazol-1-yl)cyclohexyl)-3-methylazetidin-3-ol], the IC50 is < 10 nM.

On to `C[C@@H](Cn1cnnn1)Oc1cc(-c2cnc(Nc3cn([C@H]4CC[C@@H](N5CC(C)(O)C5)CC4)nc3C(F)(F)F)nc2)ccc1Cl` [Example 803, 1-(cis-4-(4-((5-(3-(((S)-1-(1H-tetrazol-1-yl)propan-2-yl)oxy)-4-chlorophenyl)pyrimidin-2-yl)amino)-3-(trifluoromethyl)-1H-pyrazol-1-yl)cyclohexyl)-3-methylazetidin-3-ol], for which the IC50 was < 10 nM.

Turning to `C[C@@H](Cn1cnnn1)Oc1cc(-c2cnc(Nc3cn([C@H]4CC[C@H](N5CC(C)(O)C5)CC4)nc3C(F)(F)F)nc2)ccc1Cl` [Example 804, 1-(trans-4-(4-((5-(3-(((S)-1-(1H-tetrazol-1-yl)propan-2-yl)oxy)-4-chlorophenyl)pyrimidin-2-yl)amino)-3-(trifluoromethyl)-1H-pyrazol-1-yl)cyclohexyl)-3-methylazetidin-3-ol], the IC50 was < 10 nM.

As for `C[C@@H](Cn1cnnn1)Oc1cc(-c2cnc(Nc3cn([C@H]4CC[C@@H](N5CCOCC5)CC4)nc3OCC(F)F)nc2)ccc1Cl` [Example 805, 5-(3-(((S)-1-(1H-tetrazol-1-yl)propan-2-yl)oxy)-4-chlorophenyl)-N-(3-(2,2-difluoroethoxy)-1-(cis-4-morpholinocyclohexyl)-1H-pyrazol-4-yl)pyrimidin-2-amine], the IC50 was < 10 nM.

In the case of `C[C@@H](Cn1cnnn1)Oc1cc(-c2cnc(Nc3cn([C@H]4CC[C@@H](N5CCOCC5)CC4)nc3C(F)(F)F)nc2)ccc1F` [Example 807, 5-(3-(((S)-1-(1H-tetrazol-1-yl)propan-2-yl)oxy)-4-fluorophenyl)-N-(1-(cis-4-morpholinocyclohexyl)-3-(trifluoromethyl)-1H-pyrazol-4-yl)pyrimidin-2-amine], the IC50 is 10 to 100 nM.

Consider `C[C@@H](Cn1cnnn1)Oc1cc(-c2cnc(Nc3cn([C@H]4CC[C@H](N5CCOCC5)CC4)nc3C(F)(F)F)nc2)ccc1F` [Example 808, 5-(3-(((S)-1-(1H-tetrazol-1-yl)propan-2-yl)oxy)-4-fluorophenyl)-N-(1-(trans-4-morpholinocyclohexyl)-3-(trifluoromethyl)-1H-pyrazol-4-yl)pyrimidin-2-amine], for which the IC50 is < 10 nM.
